Data from patent US20240365781A1, “SYNERGISTICALLY EFFECTIVE HERBICIDE COMPOSITION COMPRISING PELARGONIC ACID AND FLAZASULFURON” (Belchim Crop Protection NV, priority 2017, published 2024).

Assays:
Assay type in all cases: in vivo
Lolium sp. = test: post-emergence test, field trial (Examples 1-5); conditions: 7 d, FT; pelargonic acid 5440 g/ha, flazasulfuron 50 g/ha; 8 L/ha
Description: (§1) The expected activity of a given combination of two or three herbicides can be calculated as follows according to a calculation method by Colby (cf. COLBY, S. R.: “Calculating synergistic and antagonistic responses of herbicide combinations”, • Weeds 15, pages 20-22, 1967): • If X=% damage by herbicide (A) at an application rate of m g/ha, • Y=% damage by herbicide (B) at an application rate of n g/ha, • E=the expected damage by herbicides (A) and (B) at application rates of m and n […] and, • then for a combination:
(§2) Individual compositions comprising pelargonic acid or flazasulfuron are compared with a herbicide composition according to the invention comprising pelargonic acid and flazasulfuron.
Herbicidal activity was determined by performing a post-emergence test. […] The corresponding mixture was in the form of a spray liquor. Besides, spray liquors of individual compositions comprising pelargonic acid or flazasulfuron were used.
Tests were performed on test fields (field trials) or in pots (pot trials).

Amaranthus retroflexus = test: post-emergence field trial under rows of vines, 150-200 L water/ha (Examples 6-9); conditions: flazasulfuron 40 g/ha
Description: as §1, §2
(§3) Herbicidal activity was determined by performing a post-emergence test. […] The corresponding mixture was in the form of a spray solution. Besides, spray solutions of individual compositions comprising pelargonic acid or flazasulfuron were used.
(§4) The spray solution was applied on plants of unwanted vegetation present on fields where perennial crops were grown.
(§5) After 5 to 88 days after application of the spray solution, the degree of damage to the unwanted vegetation is rated in % of plants of unwanted vegetation that were killed. Tests were performed on test fields (field trials).

Chenopodium album = test: as above; conditions: flazasulfuron 40 g/ha
Description: as §1, §2, §3, §4, §5

Convolvulus arvensis = test: as above; conditions: flazasulfuron 40 g/ha
Description: as §1, §2, §3, §4, §5

Epilobium tetragonum = test: as above; conditions: flazasulfuron 40 g/ha
Description: as §1, §2, §3, §4, §5

Erigeron sumatrensis = test: as above; conditions: flazasulfuron 40 g/ha
Description: as §1, §2, §3, §4, §5

Geranium molle = test: as above; conditions: 15 d, flazasulfuron 40 g/ha
Description: as §1, §2, §3, §4, §5

Senecio vulgaris = test: as above; conditions: flazasulfuron 40 g/ha
Description: as §1, §2, §3, §4, §5

Sonchus oleracea = test: as above; conditions: flazasulfuron 40 g/ha
Description: as §1, §2, §3, §4, §5

Stellaria media = test: as above; conditions: flazasulfuron 40 g/ha
Description: as §1, §2, §3, §4, §5

Veronica persicae = test: as above; conditions: flazasulfuron 40 g/ha
Description: as §1, §2, §3, §4, §5

[1] = 7 d, pelargonic acid 10880 g/ha
[2] = 14 d, pelargonic acid 5440 g/ha
[3] = 14 d, pelargonic acid 10880 g/ha
[4] = 31 d, pelargonic acid 5440 g/ha
[5] = 31 d, pelargonic acid 6800 g/ha
[6] = 31 d, pelargonic acid 8160 g/ha
[7] = 31 d, pelargonic acid 10880 g/ha
[8] = 58 d, pelargonic acid 5440 g/ha
[9] = 58 d, pelargonic acid 6800 g/ha
[10] = 58 d, pelargonic acid 8160 g/ha
[11] = 58 d, pelargonic acid 10880 g/ha
[12] = 14 d, pelargonic acid 6800 g/ha
[13] = 14 d, pelargonic acid 8160 g/ha
[14] = 28 d, pelargonic acid 6800 g/ha
[15] = 28 d, pelargonic acid 8160 g/ha
[16] = 28 d, pelargonic acid 10880 g/ha
[17] = 27 d, pelargonic acid 6800 g/ha
[18] = 27 d, pelargonic acid 8160 g/ha
[19] = 27 d, pelargonic acid 10880 g/ha
[20] = 56 d, pelargonic acid 6800 g/ha
[21] = 56 d, pelargonic acid 8160 g/ha
[22] = 56 d, pelargonic acid 10880 g/ha
[23] = 27 d, pelargonic acid 5440 g/ha
[24] = 56 d, pelargonic acid 5440 g/ha

In the case of `COc1cc(OC)nc(NC(=O)NS(=O)(=O)c2ncccc2C(F)(F)F)n1` [Flazasulfuron, 1-(4,6-dimethoxypyrimidin-2-yl)-3-(3-trifluoromethyl-2-pyridylsulfonyl)urea], the herbicidal effect (Lolium sp.) was 2.5%, the herbicidal effect (Amaranthus retroflexus; 7 d, pelargonic acid 5440 g/ha) was 23% and the herbicidal effect (Amaranthus retroflexus; [1]) was 23%. For the same compound, the herbicidal effect (Amaranthus retroflexus; [2]) was 23%, the herbicidal effect (Amaranthus retroflexus; [3]) was 23% and the herbicidal effect (Amaranthus retroflexus; [4]) was 53%. It also gave a herbicidal effect (Amaranthus retroflexus; [5]) of 53%, a herbicidal effect (Amaranthus retroflexus; [6]) of 53% and a herbicidal effect (Amaranthus retroflexus; [7]) of 53%. For the same compound, the herbicidal effect (Amaranthus retroflexus; [8]) was 78%, the herbicidal effect (Amaranthus retroflexus; [9]) was 78% and the herbicidal effect (Amaranthus retroflexus; [10]) was 78%. For the same compound, the herbicidal effect (Amaranthus retroflexus; [11]) was 78%, the herbicidal effect (Chenopodium album; 7 d, pelargonic acid 5440 g/ha) was 23% and the herbicidal effect (Chenopodium album; [1]) was 23%. For the same compound, the herbicidal effect (Chenopodium album; [2]) was 25%, the herbicidal effect (Chenopodium album; [3]) was 25% and the herbicidal effect (Chenopodium album; [4]) was 53%. For the same compound, the herbicidal effect (Chenopodium album; [6]) was 53%, the herbicidal effect (Chenopodium album; [7]) was 53% and the herbicidal effect (Chenopodium album; [8]) was 65%. It also gave a herbicidal effect (Chenopodium album; [9]) of 65%, a herbicidal effect (Chenopodium album; [10]) of 65% and a herbicidal effect (Chenopodium album; [11]) of 65%. It also gave a herbicidal effect (Convolvulus arvensis; 7 d, pelargonic acid 5440 g/ha) of 73%, a herbicidal effect (Convolvulus arvensis; 7 d, pelargonic acid 6800 g/ha) of 73% and a herbicidal effect (Convolvulus arvensis; 7 d, pelargonic acid 8160 g/ha) of 73%. The herbicidal effect (Convolvulus arvensis; [2]) was 88%, the herbicidal effect (Convolvulus arvensis; [12]) was 88% and the herbicidal effect (Convolvulus arvensis; [13]) was 88%. It also gave a herbicidal effect (Convolvulus arvensis; [3]) of 88%, a herbicidal effect (Convolvulus arvensis; [14]) of 74% and a herbicidal effect (Convolvulus arvensis; [15]) of 74%. For the same compound, the herbicidal effect (Convolvulus arvensis; [16]) was 74%, the herbicidal effect (Convolvulus arvensis; 65 d, pelargonic acid 5440 g/ha) was 0% and the herbicidal effect (Convolvulus arvensis; 65 d, pelargonic acid 6800 g/ha) was 0%. The herbicidal effect (Convolvulus arvensis; 65 d, pelargonic acid 8160 g/ha) was 0%, the herbicidal effect (Convolvulus arvensis; 65 d, pelargonic acid 10880 g/ha) was 0% and the herbicidal effect (Epilobium tetragonum; 7 d, pelargonic acid 5440 g/ha) was 61%. The herbicidal effect (Epilobium tetragonum; 7 d, pelargonic acid 8160 g/ha) was 61%, the herbicidal effect (Epilobium tetragonum; [1]) was 61% and the herbicidal effect (Epilobium tetragonum; [12]) was 96%. The herbicidal effect (Epilobium tetragonum; [13]) was 96%, the herbicidal effect (Epilobium tetragonum; [3]) was 96% and the herbicidal effect (Epilobium tetragonum; [17]) was 96%. For the same compound, the herbicidal effect (Epilobium tetragonum; [18]) was 96%, the herbicidal effect (Epilobium tetragonum; [19]) was 96% and the herbicidal effect (Epilobium tetragonum; [20]) was 96%. The herbicidal effect (Epilobium tetragonum; [21]) was 96%, the herbicidal effect (Epilobium tetragonum; [22]) was 96% and the herbicidal effect (Erigeron sumatrensis; 5 d, pelargonic acid 5440 g/ha) was 18%. It also gave a herbicidal effect (Erigeron sumatrensis; 5 d, pelargonic acid 8160 g/ha) of 18%, a herbicidal effect (Erigeron sumatrensis; 15 d, pelargonic acid 5440 g/ha) of 98% and a herbicidal effect (Erigeron sumatrensis; 15 d, pelargonic acid 6800 g/ha) of 98%. For the same compound, the herbicidal effect (Erigeron sumatrensis; 15 d, pelargonic acid 8160 g/ha) was 98%, the herbicidal effect (Geranium molle; pelargonic acid 5440 g/ha) was 63% and the herbicidal effect (Geranium molle; pelargonic acid 6800 g/ha) was 63%. The herbicidal effect (Geranium molle; pelargonic acid 8160 g/ha) was 63%, the herbicidal effect (Geranium molle; pelargonic acid 10880 g/ha) was 63% and the herbicidal effect (Senecio vulgaris; 7 d, pelargonic acid 5440 g/ha) was 20%. It also gave a herbicidal effect (Senecio vulgaris; 7 d, pelargonic acid 6800 g/ha) of 20%, a herbicidal effect (Senecio vulgaris; [2]) of 20% and a herbicidal effect (Senecio vulgaris; [12]) of 20%. It also gave a herbicidal effect (Senecio vulgaris; [13]) of 20%, a herbicidal effect (Senecio vulgaris; [4]) of 50% and a herbicidal effect (Senecio vulgaris; [5]) of 50%. The herbicidal effect (Senecio vulgaris; [6]) was 50%, the herbicidal effect (Senecio vulgaris; [7]) was 50% and the herbicidal effect (Senecio vulgaris; [8]) was 97%. For the same compound, the herbicidal effect (Senecio vulgaris; [10]) was 97%, the herbicidal effect (Senecio vulgaris; [11]) was 97% and the herbicidal effect (Sonchus oleracea; [2]) was 75%. The herbicidal effect (Sonchus oleracea; [12]) was 75%, the herbicidal effect (Sonchus oleracea; [13]) was 75% and the herbicidal effect (Sonchus oleracea; [3]) was 75%. It also gave a herbicidal effect (Sonchus oleracea; [23]) of 74%, a herbicidal effect (Sonchus oleracea; [17]) of 74% and a herbicidal effect (Sonchus oleracea; [18]) of 74%. It also gave a herbicidal effect (Sonchus oleracea; [19]) of 74%, a herbicidal effect (Sonchus oleracea; [24]) of 70% and a herbicidal effect (Sonchus oleracea; [20]) of 70%. The herbicidal effect (Sonchus oleracea; [21]) was 70%, the herbicidal effect (Sonchus oleracea; [22]) was 70% and the herbicidal effect (Stellaria media; 7 d, pelargonic acid 8160 g/ha) was 30%. The herbicidal effect (Stellaria media; [1]) was 30%, the herbicidal effect (Stellaria media; [2]) was 54% and the herbicidal effect (Stellaria media; [12]) was 54%. The herbicidal effect (Stellaria media; [13]) was 54%, the herbicidal effect (Stellaria media; [3]) was 54% and the herbicidal effect (Stellaria media; 28 d, pelargonic acid 5440 g/ha) was 86%. The herbicidal effect (Stellaria media; [14]) was 86%, the herbicidal effect (Stellaria media; [15]) was 86% and the herbicidal effect (Stellaria media; [16]) was 86%. The herbicidal effect (Veronica persicae; 7 d, pelargonic acid 5440 g/ha) was 43%, the herbicidal effect (Veronica persicae; 7 d, pelargonic acid 6800 g/ha) was 43% and the herbicidal effect (Veronica persicae; 7 d, pelargonic acid 8160 g/ha) was 43%. The herbicidal effect (Veronica persicae; [1]) was 43%, the herbicidal effect (Veronica persicae; [2]) was 50% and the herbicidal effect (Veronica persicae; [12]) was 50%. It also gave a herbicidal effect (Veronica persicae; [13]) of 50%, a herbicidal effect (Veronica persicae; [3]) of 50% and a herbicidal effect (Veronica persicae; [23]) of 24%. The herbicidal effect (Veronica persicae; [17]) was 24%, the herbicidal effect (Veronica persicae; [18]) was 24% and the herbicidal effect (Veronica persicae; [19]) was 24%. For the same compound, the herbicidal effect (Veronica persicae; [24]) was 0% and the herbicidal effect (Veronica persicae; [22]) was 0%.
